# Laboratory results from BindingDB's records for doi:10.1016/s0028-3908(96)00171-2 (Smithkline Beecham Pharmaceuticals, 1997).
# Target: 5-hydroxytryptamine receptor 6 (Homo sapiens, UniProt P50406)
# Sequence (P50406 whole entry): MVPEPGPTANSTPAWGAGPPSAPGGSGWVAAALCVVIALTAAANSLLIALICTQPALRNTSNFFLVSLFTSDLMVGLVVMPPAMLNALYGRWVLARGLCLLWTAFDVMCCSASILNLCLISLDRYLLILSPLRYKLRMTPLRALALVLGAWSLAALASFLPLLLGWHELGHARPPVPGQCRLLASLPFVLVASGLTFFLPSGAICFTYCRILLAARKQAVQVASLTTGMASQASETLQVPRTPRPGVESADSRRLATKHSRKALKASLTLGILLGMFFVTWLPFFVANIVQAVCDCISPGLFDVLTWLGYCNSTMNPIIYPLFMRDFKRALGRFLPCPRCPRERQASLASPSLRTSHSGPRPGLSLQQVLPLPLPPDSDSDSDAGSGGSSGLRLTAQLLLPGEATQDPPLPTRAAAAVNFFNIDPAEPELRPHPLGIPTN
smiles,measurement,value
CC(N)Cc1c[nH]c2ccc(OCc3cccs3)cc12 (stereo unspecified) [NSC_5311036],Ki,398 nM
